{"source": "ChEMBL document CHEMBL2176878", "about": "“Synthesis and biological characterization of 3-substituted 1H-indoles as ligands of GluN2B-containing N-methyl-D-aspartate receptors. Part 2” (J Med Chem, 2012)", "key": {"[1]": {"molecular_target": "Glutamate receptor ionotropic, NMDA 2B (Rattus norvegicus) (UniProt Q00960)", "sequence (Q00960 27-1482 limits assumed)": "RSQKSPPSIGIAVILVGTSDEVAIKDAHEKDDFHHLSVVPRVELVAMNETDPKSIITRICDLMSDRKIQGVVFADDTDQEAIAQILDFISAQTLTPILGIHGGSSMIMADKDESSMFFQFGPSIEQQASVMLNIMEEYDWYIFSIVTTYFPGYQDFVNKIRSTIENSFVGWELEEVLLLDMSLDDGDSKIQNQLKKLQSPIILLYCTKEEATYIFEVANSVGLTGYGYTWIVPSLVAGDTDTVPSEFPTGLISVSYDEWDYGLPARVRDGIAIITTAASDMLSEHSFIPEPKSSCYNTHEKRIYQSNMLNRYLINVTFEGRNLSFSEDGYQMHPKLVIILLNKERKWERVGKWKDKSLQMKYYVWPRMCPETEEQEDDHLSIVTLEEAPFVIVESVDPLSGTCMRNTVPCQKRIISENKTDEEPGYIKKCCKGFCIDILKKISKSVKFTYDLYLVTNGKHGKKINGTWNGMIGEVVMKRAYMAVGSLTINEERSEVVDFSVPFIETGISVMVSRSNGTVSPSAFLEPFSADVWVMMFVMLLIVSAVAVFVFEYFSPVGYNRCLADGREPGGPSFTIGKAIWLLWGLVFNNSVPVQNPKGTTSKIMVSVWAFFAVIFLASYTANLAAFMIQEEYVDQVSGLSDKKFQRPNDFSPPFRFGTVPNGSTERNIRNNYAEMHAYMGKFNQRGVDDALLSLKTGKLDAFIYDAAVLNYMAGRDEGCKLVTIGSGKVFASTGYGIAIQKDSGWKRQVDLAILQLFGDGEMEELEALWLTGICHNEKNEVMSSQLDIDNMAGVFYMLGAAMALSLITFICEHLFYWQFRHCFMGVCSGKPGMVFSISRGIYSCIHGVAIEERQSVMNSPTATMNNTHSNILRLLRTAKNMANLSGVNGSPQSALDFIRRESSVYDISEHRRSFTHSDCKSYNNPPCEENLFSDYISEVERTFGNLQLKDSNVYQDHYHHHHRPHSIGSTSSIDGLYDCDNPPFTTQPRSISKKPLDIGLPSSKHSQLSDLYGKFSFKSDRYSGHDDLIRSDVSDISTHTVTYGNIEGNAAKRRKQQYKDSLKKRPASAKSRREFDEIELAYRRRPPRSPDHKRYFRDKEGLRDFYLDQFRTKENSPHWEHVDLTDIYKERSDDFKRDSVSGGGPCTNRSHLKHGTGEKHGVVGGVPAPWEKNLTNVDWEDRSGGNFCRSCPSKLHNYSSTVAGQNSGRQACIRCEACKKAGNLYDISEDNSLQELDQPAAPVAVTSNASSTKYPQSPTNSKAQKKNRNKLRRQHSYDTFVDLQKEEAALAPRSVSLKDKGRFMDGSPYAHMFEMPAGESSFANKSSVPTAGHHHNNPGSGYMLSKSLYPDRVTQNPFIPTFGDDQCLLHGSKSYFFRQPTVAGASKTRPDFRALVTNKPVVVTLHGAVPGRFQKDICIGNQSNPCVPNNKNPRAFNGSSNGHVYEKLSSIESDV", "experiment": "Displacement of [3H]ifenprodil from NMDA receptor GluN2B subunit in Wistar rat cerebral cortex at 10 uM after 120 mins", "type": "tissue-based"}, "[2]": {"molecular_target": "Glutamate receptor ionotropic, NMDA 2B (Rattus norvegicus, UniProt Q00960)", "sequence (Q00960 whole entry)": "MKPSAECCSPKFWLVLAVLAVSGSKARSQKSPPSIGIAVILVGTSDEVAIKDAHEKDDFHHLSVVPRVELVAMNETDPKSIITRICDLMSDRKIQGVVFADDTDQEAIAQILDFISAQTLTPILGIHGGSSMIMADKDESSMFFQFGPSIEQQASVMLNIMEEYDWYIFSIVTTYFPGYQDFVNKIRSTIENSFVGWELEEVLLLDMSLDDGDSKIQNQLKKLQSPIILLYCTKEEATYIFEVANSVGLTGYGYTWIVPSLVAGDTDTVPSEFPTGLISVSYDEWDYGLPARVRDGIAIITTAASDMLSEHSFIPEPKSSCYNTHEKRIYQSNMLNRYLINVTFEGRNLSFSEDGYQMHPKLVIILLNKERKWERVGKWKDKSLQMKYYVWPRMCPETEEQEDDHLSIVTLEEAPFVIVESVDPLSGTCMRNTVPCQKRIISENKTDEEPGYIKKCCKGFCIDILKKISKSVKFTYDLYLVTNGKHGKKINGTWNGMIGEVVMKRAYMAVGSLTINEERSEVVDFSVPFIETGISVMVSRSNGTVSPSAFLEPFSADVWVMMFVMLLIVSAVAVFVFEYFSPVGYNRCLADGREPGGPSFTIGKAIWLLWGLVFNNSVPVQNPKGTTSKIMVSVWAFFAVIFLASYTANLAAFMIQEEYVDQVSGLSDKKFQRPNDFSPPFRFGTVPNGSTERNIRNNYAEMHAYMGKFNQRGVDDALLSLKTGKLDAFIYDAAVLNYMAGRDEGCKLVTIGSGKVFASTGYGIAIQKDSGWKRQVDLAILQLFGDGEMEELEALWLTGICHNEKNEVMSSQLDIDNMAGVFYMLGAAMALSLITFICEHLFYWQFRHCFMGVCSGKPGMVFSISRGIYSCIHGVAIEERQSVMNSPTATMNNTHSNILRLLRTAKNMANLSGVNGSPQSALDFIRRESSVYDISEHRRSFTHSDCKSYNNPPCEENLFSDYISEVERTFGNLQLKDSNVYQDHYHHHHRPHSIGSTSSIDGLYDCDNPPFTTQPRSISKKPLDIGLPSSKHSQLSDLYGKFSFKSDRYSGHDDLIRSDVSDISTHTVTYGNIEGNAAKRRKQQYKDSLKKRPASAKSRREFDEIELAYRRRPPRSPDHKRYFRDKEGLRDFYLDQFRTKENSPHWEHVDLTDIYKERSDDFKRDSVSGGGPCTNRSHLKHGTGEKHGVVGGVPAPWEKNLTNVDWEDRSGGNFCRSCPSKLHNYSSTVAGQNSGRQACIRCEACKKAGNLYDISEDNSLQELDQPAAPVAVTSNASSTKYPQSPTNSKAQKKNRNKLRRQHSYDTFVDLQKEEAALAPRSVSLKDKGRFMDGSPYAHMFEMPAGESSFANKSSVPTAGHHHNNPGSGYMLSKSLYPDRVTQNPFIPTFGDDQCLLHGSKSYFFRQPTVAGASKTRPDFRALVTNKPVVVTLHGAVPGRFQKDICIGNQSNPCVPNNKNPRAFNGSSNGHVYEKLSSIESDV", "experiment": "Displacement of [3H]ifenprodil from NMDA receptor GluN2B subunit in Wistar rat cerebral cortex after 120 mins", "type": "tissue-based"}, "[3]": {"experiment": "Dissociation constant, pKa of the compound", "type": "physicochemical"}, "[4]": {"molecular_target": "Glutamate receptor ionotropic, NMDA 2B (Mus musculus) (UniProt Q01097)", "sequence (Q01097 whole entry)": "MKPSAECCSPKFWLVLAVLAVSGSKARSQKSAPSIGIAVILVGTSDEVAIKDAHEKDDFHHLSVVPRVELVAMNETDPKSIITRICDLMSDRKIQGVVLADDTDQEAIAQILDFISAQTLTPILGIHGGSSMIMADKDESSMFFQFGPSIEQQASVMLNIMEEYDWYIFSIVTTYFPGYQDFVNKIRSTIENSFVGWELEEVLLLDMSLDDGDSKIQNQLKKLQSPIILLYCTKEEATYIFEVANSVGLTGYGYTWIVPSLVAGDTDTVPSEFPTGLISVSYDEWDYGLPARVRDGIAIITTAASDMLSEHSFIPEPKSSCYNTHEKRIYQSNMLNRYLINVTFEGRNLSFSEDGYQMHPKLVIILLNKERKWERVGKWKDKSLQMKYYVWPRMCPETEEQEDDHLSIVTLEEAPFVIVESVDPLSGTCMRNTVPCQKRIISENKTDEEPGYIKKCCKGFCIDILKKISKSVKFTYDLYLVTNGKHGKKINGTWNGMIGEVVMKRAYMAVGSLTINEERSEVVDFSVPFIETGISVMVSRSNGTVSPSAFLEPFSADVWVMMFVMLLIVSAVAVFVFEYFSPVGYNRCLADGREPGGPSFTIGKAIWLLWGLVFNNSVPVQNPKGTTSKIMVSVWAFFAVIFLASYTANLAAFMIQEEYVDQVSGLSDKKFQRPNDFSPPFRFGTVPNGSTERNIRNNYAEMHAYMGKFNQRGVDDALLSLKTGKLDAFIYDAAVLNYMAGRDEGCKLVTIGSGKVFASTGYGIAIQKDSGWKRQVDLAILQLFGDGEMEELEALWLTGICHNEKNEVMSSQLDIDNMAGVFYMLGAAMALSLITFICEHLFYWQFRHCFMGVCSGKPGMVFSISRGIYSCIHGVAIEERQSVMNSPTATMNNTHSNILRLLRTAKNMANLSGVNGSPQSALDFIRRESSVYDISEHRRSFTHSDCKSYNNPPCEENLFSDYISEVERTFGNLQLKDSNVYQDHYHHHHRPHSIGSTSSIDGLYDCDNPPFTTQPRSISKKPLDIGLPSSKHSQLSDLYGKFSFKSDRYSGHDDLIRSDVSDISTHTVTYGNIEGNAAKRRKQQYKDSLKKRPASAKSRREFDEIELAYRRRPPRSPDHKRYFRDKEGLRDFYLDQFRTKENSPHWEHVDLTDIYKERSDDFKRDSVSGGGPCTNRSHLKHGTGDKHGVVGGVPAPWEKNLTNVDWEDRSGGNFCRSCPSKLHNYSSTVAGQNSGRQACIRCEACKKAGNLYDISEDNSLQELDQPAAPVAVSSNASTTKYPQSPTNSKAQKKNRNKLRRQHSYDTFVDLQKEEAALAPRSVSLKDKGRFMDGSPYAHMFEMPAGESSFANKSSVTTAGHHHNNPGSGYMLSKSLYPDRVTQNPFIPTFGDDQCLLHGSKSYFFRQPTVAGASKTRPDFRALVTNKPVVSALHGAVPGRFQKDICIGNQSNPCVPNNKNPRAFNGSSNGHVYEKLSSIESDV", "experiment": "(§1) Antagonist activity at NMDA receptor GluN2B subunit in FVB mouse CA1 pyramidal neurons assessed as decrease in EPSC amplitude at holding potential of -60 mV at 50 uM measured at 5 mins by patch clamp electrophysiological assay in presence of Mg2+ free ACSF containing CNQX, glycine, bicuculline relative to control", "type": "functional, cell-based", "parameters": "scale not given: the % may be the effect or the level left", "settings": "Pyramidal neuron"}, "[5]": {"molecular_target": "Glutamate NMDA receptor; Grin1/Grin2b (Rattus norvegicus, UniProt P35439+Q00960)", "experiment": "Inhibition of rat NMDA receptor NR1F/NR2B subunit expressed in Xenopus laevis oocytes after 2 days by two-electrode voltage-clamp electrophysiological assay", "type": "cell-based, Oocyte"}, "[6]": {"molecular_target": "Glutamate receptor ionotropic, NMDA 2B (Mus musculus) (UniProt Q01097)", "experiment": "as §1, with “6” for “50”", "type": "functional, cell-based", "parameters": "scale not given: the % may be the effect or the level left", "settings": "Pyramidal neuron"}, "[7]": {"molecular_target": "Glutamate receptor ionotropic, NMDA 2B (Rattus norvegicus) (UniProt Q00960)", "experiment": "as §1, with “Wistar rat” for “FVB mouse”, “100 nM” for “50 uM”", "type": "functional, cell-based", "parameters": "scale not given: the % may be the effect or the level left", "settings": "Pyramidal neuron"}, "[8]": {"molecular_target": "Glutamate receptor ionotropic, NMDA 2B (Mus musculus) (UniProt Q01097)", "experiment": "as §1, with “100 nM” for “50 uM”", "type": "functional, cell-based", "parameters": "scale not given: the % may be the effect or the level left", "settings": "Pyramidal neuron"}}}
{"molecule": "Nc1ccc2c(C(=O)C(=O)N3CCC(Cc4ccccc4)CC3)c[nH]c2c1", "values": [{"measurement": "inhibition", "setting": "[1]", "value": 32, "unit": "%"}]}
{"molecule": "CS(=O)(=O)Nc1ccc2c(C(=O)C(=O)N3CCC(Cc4ccccc4)CC3)c[nH]c2c1", "values": [{"measurement": "IC50", "setting": "[2]", "value": 63, "unit": "nM"}]}
{"molecule": "O=C(CN1CCC(Cc2ccccc2)CC1)c1c[nH]c2cc(O)ccc12", "values": [{"measurement": "pKa", "setting": "[3]", "value": 9.63}]}
{"molecule": "N[C@H](CCCP(=O)(O)O)C(=O)O", "values": [{"measurement": "Activity", "setting": "[4]", "value": 28, "unit": "%"}]}
{"molecule": "C[C@@H](CN1CCC(Cc2ccccc2)CC1)[C@@H](O)c1ccc(O)cc1", "values": [{"measurement": "IC50", "setting": "[5]", "value": 17, "unit": "nM"}, {"measurement": "Activity", "setting": "[6]", "value": 29, "unit": "%"}]}
{"molecule": "CS(=O)(=O)Nc1ccc2[nH]cc(C(=O)C(=O)N3CCC(Cc4ccccc4)CC3)c2c1", "values": [{"measurement": "inhibition", "setting": "[1]", "value": 42, "unit": "%"}]}
{"molecule": "CS(=O)(=O)Nc1ccc2c(C(=O)CN3CCC(Cc4ccccc4)CC3)c[nH]c2c1", "values": [{"measurement": "pKa", "setting": "[3]", "value": 9.97}, {"measurement": "Activity", "setting": "[7]", "value": 50, "unit": "%"}, {"measurement": "Activity", "setting": "[8]", "value": 23.3, "unit": "%"}, {"measurement": "IC50", "setting": "[2]", "value": 8.9, "unit": "nM"}]}
{"molecule": "Nc1ccc2c(C(=O)CN3CCC(Cc4ccccc4)CC3)c[nH]c2c1", "values": [{"measurement": "IC50", "setting": "[2]", "value": 2270, "unit": "nM"}]}
{"molecule": "CS(=O)(=O)Nc1ccc2[nH]cc(C(=O)CN3CCC(Cc4ccccc4)CC3)c2c1", "values": [{"measurement": "IC50", "setting": "[2]", "value": 320, "unit": "nM"}]}
{"molecule": "Nc1ccc2[nH]cc(C(=O)C(=O)N3CCC(Cc4ccccc4)CC3)c2c1", "values": [{"measurement": "inhibition", "setting": "[1]", "value": 40, "unit": "%"}]}
{"molecule": "Nc1ccc2[nH]cc(C(=O)CN3CCC(Cc4ccccc4)CC3)c2c1", "values": [{"measurement": "IC50", "setting": "[2]", "value": 1180, "unit": "nM"}]}
